Consider one cell line from the supplement of paper PMC10307832.

Holding throughout (experiment): relative viability (nuclei count vs DMSO), 5 days (fraction); higher = more cells survive
Compound in experiment [1]: CCn1c(-c2nonc2N)nc2cnc(Oc3cccc(NC(=O)c4ccc(OCCN5CCOCC5)cc4)c3)cc21 + CC1(C)CCC(c2ccc(Cl)cc2)=C(CN2CCN(c3ccc(C(=O)NS(=O)(=O)c4ccc(N[C@H](CCN5CCOCC5)CSc5ccccc5)c(S(=O)(=O)C(F)(F)F)c4)cc3)CC2)C1 [Navitoclax] (partner 0.5 µM)
The procedure, abridged:
(§1)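 After 5 days of treatment, lung cancer cells in 1536-well plates were fixed and stained in a single step (final 0.05% Triton X-100, 1% formaldehyde, 1 ug/ml Hoechst) and their nuclei counted on 4× images. Treatment had been applied by pin tool the day after seeding as one drug alone or as a fixed anchor-drug dose with five library-drug doses (not always all listed) in √10 steps. Relative viability is the nuclei count of treated wells divided by that of vehicle wells, and values are medians of duplicate plates.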

Compound in the experiment “Mirin + Lapatinib”: N=C1NC(=O)/C(=C/c2ccc(O)cc2)S1 [Mirin] + CS(=O)(=O)CCNCc1ccc(-c2ccc3ncnc(Nc4ccc(OCc5cccc(F)c5)c(Cl)c4)c3c2)o1 [Lapatinib] (partner 2 µM)
The procedure, abridged: as §1

Compound in the experiment “Mirin + Trametinib”: N=C1NC(=O)/C(=C/c2ccc(O)cc2)S1 [Mirin] + CC(=O)Nc1cccc(-n2c(=O)n(C3CC3)c(=O)c3c(Nc4ccc(I)cc4F)n(C)c(=O)c(C)c32)c1 [Trametinib] (partner 0.02 µM)
The procedure, abridged:
as §1

Compound in experiment [2]: CCC1=CN=CN=C1N2CCN(CC2)CC3=NC4=C(N3)C=C(C=C4)C(F)(F)F + Cc1cc(Nc2cc(N3CCN(C)CC3)nc(Sc3ccc(NC(=O)C4CC4)cc3)n2)n[nH]1 [Tozasertib] (partner 0.1 µM)
The procedure, abridged: as §1

As for UMC-11, the relative viability stood at 0.349 in experiment [1] (first compound 0.04 µM); 0.314 in experiment [1] (first compound 0.1265 µM); 0.313 in experiment [1] (first compound 0.4 µM); 0.151 in experiment [1] (first compound 1.265 µM); 0.144 in experiment [1] (first compound 4 µM); 0.958 with Mirin + Lapatinib (first compound 0.25 µM). Besides, the relative viability was found to be 0.985 with Mirin + Lapatinib (first compound 2.5 µM); 0.548 with Mirin + Lapatinib (first compound 7.906 µM); 0.684 in the experiment with Mirin + Lapatinib (first compound 25 µM); 0.721 with Mirin + Trametinib (first compound 0.25 µM); 0.381 in the experiment with Mirin + Trametinib (first compound 0.7906 µM); 0.778 with Mirin + Trametinib (first compound 2.5 µM). For the same cell line, the relative viability came out at 0.558 with Mirin + Trametinib (first compound 7.906 µM); 0.496 with Mirin + Trametinib (first compound 25 µM); 0.197 in experiment [2] (first compound 0.04 µM); 0.216 in experiment [2] (first compound 0.1265 µM); 0.216 in experiment [2] (first compound 0.4 µM); 0.204 in experiment [2] (first compound 1.265 µM). The relative viability in experiment [2] (first compound 4 µM) turned out to be 0.214.
